Results from ChEMBL document CHEMBL1681665, “3-amido-4-anilinocinnolines as a novel class of CSF-1R inhibitor” (Bioorg Med Chem Lett, 2011).
Values after ≈ are worked out from the molar mass of the structure shown. Values joined by “and” are separate entries in the source; they are usually repeats but may differ in a detail not shown here. Identical values can stand only once.

Columns and labels:
NIH3T3 = assay: Antiproliferative activity against mouse 3T3 cells expressing human CSF1R after 72 hrs by Celltiter assay; type: functional
[1] = Aqueous solubility of the compound; conditions: aqueous medium
[2] = Fraction unbound in plasma
[3] = molecular target: T1, NUAK family SNF1-like kinase 1 (Homo sapiens) (UniProt O60285); assay: Inhibition of ARK5 at 1 uM
T1 sequence (whole entry): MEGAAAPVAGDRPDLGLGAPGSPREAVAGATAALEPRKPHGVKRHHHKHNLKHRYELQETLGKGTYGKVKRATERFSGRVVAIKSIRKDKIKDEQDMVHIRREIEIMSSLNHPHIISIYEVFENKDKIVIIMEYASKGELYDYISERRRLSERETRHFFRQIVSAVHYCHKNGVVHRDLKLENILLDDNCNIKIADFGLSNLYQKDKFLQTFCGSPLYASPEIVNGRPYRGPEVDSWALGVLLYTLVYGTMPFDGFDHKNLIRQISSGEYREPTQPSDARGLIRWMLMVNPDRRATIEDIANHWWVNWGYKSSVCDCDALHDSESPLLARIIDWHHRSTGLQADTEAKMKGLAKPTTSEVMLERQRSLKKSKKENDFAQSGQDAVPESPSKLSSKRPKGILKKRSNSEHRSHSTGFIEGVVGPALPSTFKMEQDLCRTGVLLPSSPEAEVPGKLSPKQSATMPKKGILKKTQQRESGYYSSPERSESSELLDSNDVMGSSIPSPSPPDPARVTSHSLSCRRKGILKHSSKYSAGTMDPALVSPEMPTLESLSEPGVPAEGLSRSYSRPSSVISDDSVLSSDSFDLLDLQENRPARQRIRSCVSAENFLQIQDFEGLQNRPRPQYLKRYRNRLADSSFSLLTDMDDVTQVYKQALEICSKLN

[4] = molecular target: Macrophage colony-stimulating factor 1 receptor (Homo sapiens) (UniProt P07333); assay: Inhibition of CSF1R at 0.1 uM
[5] = molecular target: Maternal embryonic leucine zipper kinase (Homo sapiens) (UniProt Q14680); assay: Inhibition of MELK at 0.1 uM
[6] = molecular target: T1, NUAK family SNF1-like kinase 1 (Homo sapiens); assay: Inhibition of ARK5 at 0.1 uM
[7] = molecular target: Ribosomal protein S6 kinase alpha-1 (Homo sapiens) (UniProt Q15418); assay: Inhibition of Rsk1 at 1 uM
[8] = molecular target: Maternal embryonic leucine zipper kinase (Homo sapiens) (UniProt Q14680); assay: Inhibition of MELK at 1 uM
[9] = molecular target: Mast/stem cell growth factor receptor Kit (Homo sapiens) (UniProt P10721); assay: Inhibition of c-Kit at 1 uM
[10] = molecular target: Ribosomal protein S6 kinase alpha-1 (Homo sapiens) (UniProt Q15418); assay: Inhibition of Rsk1 at 0.1 uM
[11] = molecular target: Macrophage colony-stimulating factor 1 receptor (Homo sapiens) (UniProt P07333); assay: Inhibition of CSF1R at 1 uM
[12] = molecular target: Mast/stem cell growth factor receptor Kit (Homo sapiens) (UniProt P10721); assay: Inhibition of c-Kit at 0.1 uM
[13] = Half life in dog at 3 mg/kg, iv and 5 mg/kg, po; type: ADME, organism-based, Canis lupus familiaris; conditions: in vivo
[14] = Clearance in rat at 3 mg/kg, iv and 10 mg/kg, po; type: ADME, organism-based; conditions: in vivo
[15] = Bioavailability in mouse at 3 mg/kg, iv and 10 mg/kg, po; type: ADME, organism-based; conditions: in vivo
[16] = Bioavailability in rat at 3 mg/kg, iv and 10 mg/kg, po; type: ADME, organism-based; conditions: in vivo
[17] = Volume of distribution at steady state in mouse at 3 mg/kg, iv and 10 mg/kg, po; type: ADME, organism-based; conditions: in vivo, read-out: Vdss
[18] = Clearance in dog at 3 mg/kg, iv and 5 mg/kg, po; type: ADME, organism-based, Canis lupus familiaris; conditions: in vivo
[19] = Volume of distribution at steady state in dog at 3 mg/kg, iv and 5 mg/kg, po; type: ADME, organism-based, Canis lupus familiaris; conditions: in vivo, read-out: Vdss
[20] = Volume of distribution at steady state in rat at 3 mg/kg, iv and 10 mg/kg, po; type: ADME, organism-based; conditions: in vivo, read-out: Vdss
[21] = Bioavailability in dog at 3 mg/kg, iv and 5 mg/kg, po; type: ADME, organism-based, Canis lupus familiaris; conditions: in vivo
[22] = Clearance in mouse at 3 mg/kg, iv and 10 mg/kg, po; type: ADME, organism-based; conditions: in vivo
[23] = Half life in rat at 3 mg/kg, iv and 10 mg/kg, po; type: ADME, organism-based; conditions: in vivo
[24] = Half life in mouse at 3 mg/kg, iv and 10 mg/kg, po; type: ADME, organism-based; conditions: in vivo

Sequence of Ribosomal protein S6 kinase alpha-1 (Homo sapiens) (Q15418 whole entry): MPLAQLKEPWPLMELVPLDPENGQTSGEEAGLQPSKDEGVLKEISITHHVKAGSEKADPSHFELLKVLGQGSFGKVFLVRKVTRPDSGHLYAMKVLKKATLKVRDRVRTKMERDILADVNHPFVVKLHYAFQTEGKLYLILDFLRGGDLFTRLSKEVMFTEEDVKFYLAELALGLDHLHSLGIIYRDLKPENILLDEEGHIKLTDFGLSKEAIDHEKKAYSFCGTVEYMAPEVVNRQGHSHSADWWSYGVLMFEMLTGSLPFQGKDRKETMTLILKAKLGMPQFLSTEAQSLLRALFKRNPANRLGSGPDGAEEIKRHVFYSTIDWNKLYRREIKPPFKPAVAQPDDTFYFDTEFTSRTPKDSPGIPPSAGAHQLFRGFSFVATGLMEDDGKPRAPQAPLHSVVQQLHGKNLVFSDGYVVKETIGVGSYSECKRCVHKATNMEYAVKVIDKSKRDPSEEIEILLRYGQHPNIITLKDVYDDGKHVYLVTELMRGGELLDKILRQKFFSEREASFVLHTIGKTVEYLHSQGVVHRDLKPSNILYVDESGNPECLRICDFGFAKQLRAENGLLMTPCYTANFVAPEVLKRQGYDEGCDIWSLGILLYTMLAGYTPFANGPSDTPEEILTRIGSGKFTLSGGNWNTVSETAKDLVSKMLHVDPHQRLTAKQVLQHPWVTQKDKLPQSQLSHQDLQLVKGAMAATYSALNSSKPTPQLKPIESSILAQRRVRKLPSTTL
Sequence of Mast/stem cell growth factor receptor Kit (Homo sapiens) (P10721 whole entry): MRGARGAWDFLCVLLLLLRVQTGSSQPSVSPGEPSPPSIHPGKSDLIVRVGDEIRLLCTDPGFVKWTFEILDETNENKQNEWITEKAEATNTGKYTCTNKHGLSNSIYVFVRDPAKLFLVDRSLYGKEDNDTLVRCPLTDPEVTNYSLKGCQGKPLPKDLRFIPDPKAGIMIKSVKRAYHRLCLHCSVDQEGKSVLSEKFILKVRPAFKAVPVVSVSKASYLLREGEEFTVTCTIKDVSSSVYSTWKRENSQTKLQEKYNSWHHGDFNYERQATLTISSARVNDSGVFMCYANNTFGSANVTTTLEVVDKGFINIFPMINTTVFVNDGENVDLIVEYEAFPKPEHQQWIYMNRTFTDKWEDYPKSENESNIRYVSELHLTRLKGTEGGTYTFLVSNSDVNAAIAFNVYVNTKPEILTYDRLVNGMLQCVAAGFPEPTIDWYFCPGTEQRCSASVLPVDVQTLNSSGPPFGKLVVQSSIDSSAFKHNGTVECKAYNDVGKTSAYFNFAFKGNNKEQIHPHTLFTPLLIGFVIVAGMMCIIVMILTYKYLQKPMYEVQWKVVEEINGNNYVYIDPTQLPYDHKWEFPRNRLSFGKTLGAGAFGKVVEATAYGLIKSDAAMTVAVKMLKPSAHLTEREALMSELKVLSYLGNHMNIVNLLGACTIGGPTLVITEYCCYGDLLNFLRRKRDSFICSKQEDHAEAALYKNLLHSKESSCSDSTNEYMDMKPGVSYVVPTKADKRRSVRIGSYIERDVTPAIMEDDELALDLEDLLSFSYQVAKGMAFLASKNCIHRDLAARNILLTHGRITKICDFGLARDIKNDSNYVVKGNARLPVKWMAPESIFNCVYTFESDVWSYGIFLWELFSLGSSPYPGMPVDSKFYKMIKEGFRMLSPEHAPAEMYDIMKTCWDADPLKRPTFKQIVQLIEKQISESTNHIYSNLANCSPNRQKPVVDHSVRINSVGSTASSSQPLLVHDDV
Sequence of Macrophage colony-stimulating factor 1 receptor (Homo sapiens) (P07333 whole entry): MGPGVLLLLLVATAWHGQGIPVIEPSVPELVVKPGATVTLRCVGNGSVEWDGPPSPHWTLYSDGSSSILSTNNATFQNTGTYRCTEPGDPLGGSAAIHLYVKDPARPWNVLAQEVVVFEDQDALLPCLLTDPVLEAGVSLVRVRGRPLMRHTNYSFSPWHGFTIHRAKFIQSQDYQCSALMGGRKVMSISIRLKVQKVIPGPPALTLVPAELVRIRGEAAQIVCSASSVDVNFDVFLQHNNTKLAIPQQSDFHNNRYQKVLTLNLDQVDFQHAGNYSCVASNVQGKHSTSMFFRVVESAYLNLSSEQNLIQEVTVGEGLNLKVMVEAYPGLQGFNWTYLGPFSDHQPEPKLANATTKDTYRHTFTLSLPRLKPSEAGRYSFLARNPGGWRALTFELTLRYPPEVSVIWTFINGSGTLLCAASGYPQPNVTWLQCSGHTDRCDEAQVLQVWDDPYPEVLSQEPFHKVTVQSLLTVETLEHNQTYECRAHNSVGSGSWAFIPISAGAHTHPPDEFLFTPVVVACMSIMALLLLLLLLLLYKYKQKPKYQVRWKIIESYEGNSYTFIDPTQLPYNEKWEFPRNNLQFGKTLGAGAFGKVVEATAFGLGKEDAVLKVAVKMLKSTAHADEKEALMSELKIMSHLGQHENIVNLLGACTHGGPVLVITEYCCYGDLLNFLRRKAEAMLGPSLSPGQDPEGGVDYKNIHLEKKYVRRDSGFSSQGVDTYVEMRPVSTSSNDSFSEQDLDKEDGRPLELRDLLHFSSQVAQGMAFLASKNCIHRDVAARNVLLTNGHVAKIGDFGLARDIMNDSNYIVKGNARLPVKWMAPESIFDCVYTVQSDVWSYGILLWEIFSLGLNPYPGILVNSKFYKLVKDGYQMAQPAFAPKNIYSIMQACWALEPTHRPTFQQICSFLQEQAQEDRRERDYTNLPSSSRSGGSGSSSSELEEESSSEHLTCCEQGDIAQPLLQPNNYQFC
Sequence of Maternal embryonic leucine zipper kinase (Homo sapiens) (Q14680 whole entry, looked up): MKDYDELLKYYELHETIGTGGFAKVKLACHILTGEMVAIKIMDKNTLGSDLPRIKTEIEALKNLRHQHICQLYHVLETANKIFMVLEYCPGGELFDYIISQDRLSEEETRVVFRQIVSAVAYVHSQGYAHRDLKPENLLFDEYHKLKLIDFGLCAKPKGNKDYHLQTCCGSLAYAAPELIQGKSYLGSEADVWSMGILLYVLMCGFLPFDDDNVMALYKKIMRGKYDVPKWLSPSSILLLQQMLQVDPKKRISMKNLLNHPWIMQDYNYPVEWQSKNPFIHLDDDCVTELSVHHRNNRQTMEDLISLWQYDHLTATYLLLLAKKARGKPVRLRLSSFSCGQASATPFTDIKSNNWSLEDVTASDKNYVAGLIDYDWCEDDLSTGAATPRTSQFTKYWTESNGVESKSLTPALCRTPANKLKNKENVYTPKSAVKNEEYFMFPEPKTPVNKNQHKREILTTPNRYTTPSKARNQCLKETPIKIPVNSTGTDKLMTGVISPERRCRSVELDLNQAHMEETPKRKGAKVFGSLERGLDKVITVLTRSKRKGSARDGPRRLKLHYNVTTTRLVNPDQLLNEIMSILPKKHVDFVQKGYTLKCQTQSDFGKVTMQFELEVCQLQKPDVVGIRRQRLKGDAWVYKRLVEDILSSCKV

Row | Compound | solubility [1] [µM] | fraction unbound [2] | Activity (NIH3T3) | further results
1 | COc1cc2nnc(C(N)=O)c(Nc3ccc(C)cc3F)c2cc1N1CCN(C)CC1 | – | – | 0.025 µM | –
2 | COc1cc2nnc(C(N)=O)c(Nc3cc(C)ccc3F)c2cc1OC | < 1 | – | 0.2 µM and 0.21 µM | –
3 | COc1cc2nnc(C(N)=O)c(Nc3ccc(F)cc3F)c2cc1OC | 3 (≈ 1.08 µg/mL) | – | 0.16 µM and 0.4 µM | –
4 | COc1cc2nnc(C(N)=O)c(Nc3ccc(C)cc3F)c2cc1OC | < 1 | – | 0.11 µM and 0.25 µM | –
5 | COc1cc2nnc(C(N)=O)c(Nc3cccc(Cl)c3Cl)c2cc1OC | < 1 | – | 0.05 µM and 0.09 µM | –
6 | COc1cc2nnc(C(N)=O)c(Nc3cccc(Cl)c3F)c2cc1OC | < 1 | – | 0.08 µM and 0.12 µM | –

Now from value to molecule, other results behind:

Row | solubility [1] [µM] | fraction unbound [2] | Compound | Activity (NIH3T3) | further results
7 | 110 (≈ 48.9 µg/mL) | – | COc1cc2nnc(C(N)=O)c(Nc3cccc(Cl)c3F)c2cc1N1CCN(C)CC1 | 0.021 µM | –
8 | 10 (≈ 4.75 µg/mL) | < 0.017 | CCOc1cc2nnc(C(N)=O)c(Nc3cccc(Cl)c3Cl)c2cc1N1CCN(C)CC1 | – | –
9 | – | 0.039 | CCOc1cc2nnc(C(N)=O)c(Nc3ccc(F)cc3F)c2cc1N1CCN(C)CC1 | – | inhibition [3]: 78%; inhibition [4]: 100%; inhibition [5]: 15%; inhibition [6]: 23%; inhibition [7]: 44%; inhibition [8]: 41%; inhibition [9]: 90%; inhibition [10]: 7%; inhibition [11]: 95%; inhibition [12]: 35%
10 | 290 (≈ 124 µg/mL) | 0.096 | COc1cc2nnc(C(N)=O)c(Nc3ccc(F)cc3F)c2cc1N1CCN(C)CC1 | – | –
11 | 18 (≈ 8.26 µg/mL) | – | CCOc1cc2nnc(C(N)=O)c(Nc3cccc(Cl)c3F)c2cc1N1CCN(C)CC1 | – | –
12 | 120 (≈ 52.6 µg/mL) | 0.11 | CCOc1cc2nnc(C(N)=O)c(Nc3cc(C)ccc3F)c2cc1N1CCN(C)CC1 | 0.04 µM and 0.09 µM | –
13 | 27 (≈ 11.8 µg/mL) | 0.016 | CCOc1cc2nnc(C(N)=O)c(Nc3ccc(C)cc3F)c2cc1N1CCN(C)CC1 | – | half-life [13]: 12.6 h; clearance [14]: 10 mL/min/kg; bioavailability [15]: 82%; bioavailability [16]: 90%; Vd [17]: 0.6 L/kg; clearance [18]: 2 mL/min/kg; Vd [19]: 1.8 L/kg; Vd [20]: 2.8 L/kg; bioavailability [21]: 78%; clearance [22]: 12 mL/min/kg; half-life [23]: 9.7 h; half-life [24]: 0.9 h
14 | 22 (≈ 9.34 µg/mL) | – | COc1cc2nnc(C(N)=O)c(Nc3cc(C)ccc3F)c2cc1N1CCN(C)CC1 | 0.057 µM | –
